{
  "source": "ChEMBL document CHEMBL3612014",
  "about": "“Discovery of Tyk2 inhibitors via the virtual site-directed fragment-based drug design” (Bioorg Med Chem Lett, 2015)",
  "key": {"[1]": {"target": "T1, Non-receptor tyrosine-protein kinase TYK2 (Homo sapiens, UniProt P29597)", "T1 sequence (P29597 whole entry)": "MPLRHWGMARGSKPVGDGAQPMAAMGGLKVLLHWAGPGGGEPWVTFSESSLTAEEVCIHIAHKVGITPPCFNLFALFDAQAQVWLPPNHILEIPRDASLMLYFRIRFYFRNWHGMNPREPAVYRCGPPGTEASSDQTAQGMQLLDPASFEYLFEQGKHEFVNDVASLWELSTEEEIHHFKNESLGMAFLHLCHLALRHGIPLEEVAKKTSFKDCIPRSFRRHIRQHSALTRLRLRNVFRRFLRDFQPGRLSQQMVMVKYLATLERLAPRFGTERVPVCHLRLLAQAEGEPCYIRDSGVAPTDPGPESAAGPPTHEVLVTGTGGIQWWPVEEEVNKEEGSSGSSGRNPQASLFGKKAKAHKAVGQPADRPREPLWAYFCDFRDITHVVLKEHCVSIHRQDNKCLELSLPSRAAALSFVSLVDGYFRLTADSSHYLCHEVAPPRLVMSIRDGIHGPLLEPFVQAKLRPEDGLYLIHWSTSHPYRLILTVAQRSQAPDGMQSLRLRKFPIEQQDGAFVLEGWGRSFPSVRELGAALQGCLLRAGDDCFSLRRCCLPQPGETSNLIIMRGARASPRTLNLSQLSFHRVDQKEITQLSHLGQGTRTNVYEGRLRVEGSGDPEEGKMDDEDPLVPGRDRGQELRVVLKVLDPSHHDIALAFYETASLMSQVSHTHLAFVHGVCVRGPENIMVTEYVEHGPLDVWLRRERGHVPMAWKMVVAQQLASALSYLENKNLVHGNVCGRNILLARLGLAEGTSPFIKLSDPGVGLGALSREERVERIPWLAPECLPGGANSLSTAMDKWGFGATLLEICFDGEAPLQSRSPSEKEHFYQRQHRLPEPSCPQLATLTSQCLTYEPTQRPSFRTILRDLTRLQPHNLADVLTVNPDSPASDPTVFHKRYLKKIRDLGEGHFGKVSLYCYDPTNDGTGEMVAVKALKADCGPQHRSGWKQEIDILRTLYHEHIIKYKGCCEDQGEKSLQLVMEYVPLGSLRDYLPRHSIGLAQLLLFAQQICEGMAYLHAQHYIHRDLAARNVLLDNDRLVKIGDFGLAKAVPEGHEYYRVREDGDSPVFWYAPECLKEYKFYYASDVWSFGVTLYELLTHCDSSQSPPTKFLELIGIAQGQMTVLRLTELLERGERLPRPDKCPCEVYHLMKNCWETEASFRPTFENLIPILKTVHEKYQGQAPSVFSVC", "experiment": "Inhibition of Tyk2 (unknown origin)"}, "[2]": {"experiment": "AUC (0 to infinity) in Sprague-Dawley rat at 5 mg/kg, po", "assay_type": "ADME, organism-based", "parameters": "dose 5 mg/kg, time infinity, route oral", "settings": "in vivo"}, "[3]": {"experiment": "Mean residence time in Sprague-Dawley rat at 5 mg/kg, po", "assay_type": "ADME, organism-based", "settings": "in vivo"}, "[4]": {"target": "Serine/threonine-protein kinase PAK 4 (Homo sapiens) (UniProt O96013)", "sequence (O96013 whole entry, looked up)": "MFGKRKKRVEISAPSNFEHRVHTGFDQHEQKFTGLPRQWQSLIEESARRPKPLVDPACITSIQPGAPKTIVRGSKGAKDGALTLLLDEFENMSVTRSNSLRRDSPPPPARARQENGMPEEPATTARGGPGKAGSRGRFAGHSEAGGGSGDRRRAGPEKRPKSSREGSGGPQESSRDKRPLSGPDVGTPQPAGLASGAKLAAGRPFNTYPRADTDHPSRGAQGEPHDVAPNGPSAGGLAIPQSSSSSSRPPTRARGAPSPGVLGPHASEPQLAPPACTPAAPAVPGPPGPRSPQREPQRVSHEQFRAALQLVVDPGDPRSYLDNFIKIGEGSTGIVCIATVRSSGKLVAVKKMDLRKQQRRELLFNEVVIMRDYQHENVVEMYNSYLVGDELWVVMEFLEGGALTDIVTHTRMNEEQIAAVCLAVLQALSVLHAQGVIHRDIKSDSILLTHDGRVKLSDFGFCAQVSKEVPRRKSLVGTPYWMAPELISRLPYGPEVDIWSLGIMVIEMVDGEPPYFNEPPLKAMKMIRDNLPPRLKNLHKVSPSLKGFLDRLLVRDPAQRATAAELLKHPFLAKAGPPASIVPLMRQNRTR", "experiment": "Inhibition of PAK4 (unknown origin) at 10 uM"}, "[5]": {"experiment": "AUC (0 to t) in Sprague-Dawley rat at 5 mg/kg, iv", "assay_type": "ADME, organism-based", "settings": "in vivo"}, "[6]": {"experiment": "Cmax in Sprague-Dawley rat at 5 mg/kg, iv", "assay_type": "ADME, organism-based", "parameters": "dose 5 mg/kg, route intravenous", "settings": "in vivo"}, "[7]": {"experiment": "AUC (0 to t) in Sprague-Dawley rat at 5 mg/kg, po", "assay_type": "ADME, organism-based", "settings": "in vivo"}, "[8]": {"target": "Tyrosine-protein kinase JAK2 (Homo sapiens) (UniProt O60674)", "sequence (O60674 whole entry)": "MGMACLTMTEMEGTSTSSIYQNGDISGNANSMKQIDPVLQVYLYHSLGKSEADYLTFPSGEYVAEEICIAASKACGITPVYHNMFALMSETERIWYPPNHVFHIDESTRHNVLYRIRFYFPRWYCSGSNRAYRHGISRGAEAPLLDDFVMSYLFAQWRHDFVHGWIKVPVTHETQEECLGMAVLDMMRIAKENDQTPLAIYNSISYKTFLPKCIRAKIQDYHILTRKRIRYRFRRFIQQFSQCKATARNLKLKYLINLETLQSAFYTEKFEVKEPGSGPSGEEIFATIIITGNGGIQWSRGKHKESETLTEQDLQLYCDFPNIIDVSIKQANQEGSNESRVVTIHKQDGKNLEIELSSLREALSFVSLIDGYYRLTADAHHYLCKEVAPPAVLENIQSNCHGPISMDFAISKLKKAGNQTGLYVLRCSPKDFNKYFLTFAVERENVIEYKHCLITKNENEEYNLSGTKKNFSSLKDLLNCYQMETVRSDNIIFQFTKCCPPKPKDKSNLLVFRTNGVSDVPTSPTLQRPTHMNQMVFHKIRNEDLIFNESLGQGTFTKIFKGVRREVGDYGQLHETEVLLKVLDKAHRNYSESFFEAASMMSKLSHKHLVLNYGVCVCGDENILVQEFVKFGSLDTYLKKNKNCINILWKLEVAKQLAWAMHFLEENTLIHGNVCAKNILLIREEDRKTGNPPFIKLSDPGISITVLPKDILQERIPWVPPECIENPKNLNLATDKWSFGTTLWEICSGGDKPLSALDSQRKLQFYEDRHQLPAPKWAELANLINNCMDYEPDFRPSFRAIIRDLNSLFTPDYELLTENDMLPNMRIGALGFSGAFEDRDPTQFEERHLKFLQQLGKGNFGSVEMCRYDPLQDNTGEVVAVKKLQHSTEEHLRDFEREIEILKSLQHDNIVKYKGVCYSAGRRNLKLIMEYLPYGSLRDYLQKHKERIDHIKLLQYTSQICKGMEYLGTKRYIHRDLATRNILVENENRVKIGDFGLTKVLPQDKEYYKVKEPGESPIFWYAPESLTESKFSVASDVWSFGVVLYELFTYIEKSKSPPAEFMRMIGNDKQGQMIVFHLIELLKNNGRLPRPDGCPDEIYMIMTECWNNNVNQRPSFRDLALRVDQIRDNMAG", "experiment": "Inhibition of JAK2 (unknown origin) at 10 uM"}, "[9]": {"target": "T2, Tyrosine-protein kinase JAK3 (Homo sapiens) (UniProt P52333)", "T2 sequence (whole entry)": "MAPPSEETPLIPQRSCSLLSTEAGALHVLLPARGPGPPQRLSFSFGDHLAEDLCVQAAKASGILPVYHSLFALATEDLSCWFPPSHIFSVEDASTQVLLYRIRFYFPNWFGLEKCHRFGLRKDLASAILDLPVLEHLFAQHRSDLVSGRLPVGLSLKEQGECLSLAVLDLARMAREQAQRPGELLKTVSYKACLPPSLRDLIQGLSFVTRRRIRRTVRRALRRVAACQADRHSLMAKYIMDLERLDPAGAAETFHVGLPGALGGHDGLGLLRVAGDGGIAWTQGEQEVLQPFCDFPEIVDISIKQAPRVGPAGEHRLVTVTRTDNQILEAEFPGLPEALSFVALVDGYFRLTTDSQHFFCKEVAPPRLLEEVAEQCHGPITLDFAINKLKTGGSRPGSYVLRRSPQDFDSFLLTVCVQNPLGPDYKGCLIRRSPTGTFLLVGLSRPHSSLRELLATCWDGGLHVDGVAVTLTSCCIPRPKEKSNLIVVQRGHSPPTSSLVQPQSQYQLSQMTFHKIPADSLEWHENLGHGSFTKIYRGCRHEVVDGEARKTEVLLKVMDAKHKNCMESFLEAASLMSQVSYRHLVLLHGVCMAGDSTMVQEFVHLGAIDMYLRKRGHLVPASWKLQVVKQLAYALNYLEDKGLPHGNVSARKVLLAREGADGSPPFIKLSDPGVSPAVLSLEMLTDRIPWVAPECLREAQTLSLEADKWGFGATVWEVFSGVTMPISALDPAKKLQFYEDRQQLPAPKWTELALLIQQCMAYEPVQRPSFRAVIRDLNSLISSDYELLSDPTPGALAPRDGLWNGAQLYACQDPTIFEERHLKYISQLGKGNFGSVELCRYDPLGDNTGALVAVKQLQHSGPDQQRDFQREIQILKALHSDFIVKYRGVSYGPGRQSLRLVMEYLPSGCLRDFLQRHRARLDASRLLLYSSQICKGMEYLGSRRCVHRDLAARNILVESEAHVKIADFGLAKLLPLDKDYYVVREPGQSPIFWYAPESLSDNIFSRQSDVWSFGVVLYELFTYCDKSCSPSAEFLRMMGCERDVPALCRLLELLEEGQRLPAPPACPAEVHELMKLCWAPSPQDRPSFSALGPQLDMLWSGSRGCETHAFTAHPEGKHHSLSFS", "experiment": "Inhibition of JAK3 (unknown origin) at 10 uM"}, "[10]": {"experiment": "Cmax in Sprague-Dawley rat at 5 mg/kg, po", "assay_type": "ADME, organism-based", "parameters": "dose 5 mg/kg, route oral", "settings": "in vivo"}, "[11]": {"experiment": "Tmax in Sprague-Dawley rat at 5 mg/kg, iv", "assay_type": "ADME, organism-based", "settings": "in vivo"}, "[12]": {"target": "T1, Non-receptor tyrosine-protein kinase TYK2", "experiment": "Inhibition of Tyk2 (unknown origin) at 10 uM"}, "[13]": {"target": "T3, Aurora kinase A (Homo sapiens) (UniProt O14965)", "T3 sequence (whole entry)": "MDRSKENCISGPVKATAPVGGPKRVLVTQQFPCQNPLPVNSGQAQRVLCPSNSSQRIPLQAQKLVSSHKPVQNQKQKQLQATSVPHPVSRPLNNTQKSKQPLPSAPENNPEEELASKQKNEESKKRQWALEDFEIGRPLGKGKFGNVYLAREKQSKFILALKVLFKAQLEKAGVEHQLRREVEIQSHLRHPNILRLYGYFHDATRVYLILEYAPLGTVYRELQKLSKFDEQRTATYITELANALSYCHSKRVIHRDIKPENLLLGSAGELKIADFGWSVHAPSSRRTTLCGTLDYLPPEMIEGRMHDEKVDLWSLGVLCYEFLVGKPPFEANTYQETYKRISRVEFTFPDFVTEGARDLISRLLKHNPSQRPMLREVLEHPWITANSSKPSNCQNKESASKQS", "experiment": "Inhibition of aurora-A (unknown origin) at 10 uM"}, "[14]": {"experiment": "Tmax in Sprague-Dawley rat at 5 mg/kg, po", "assay_type": "ADME, organism-based", "settings": "in vivo"}, "[15]": {"experiment": "Terminal half life in Sprague-Dawley rat at 5 mg/kg, po", "assay_type": "ADME, organism-based", "settings": "in vivo, read-out: beta t1/2 (converted)"}, "[16]": {"experiment": "Mean residence time in Sprague-Dawley rat at 5 mg/kg, iv", "assay_type": "ADME, organism-based", "settings": "in vivo"}, "[17]": {"experiment": "AUC (0 to infinity) in Sprague-Dawley rat at 5 mg/kg, iv", "assay_type": "ADME, organism-based", "parameters": "dose 5 mg/kg, route intravenous, time infinity", "settings": "in vivo"}, "[18]": {"experiment": "Oral bioavailability in Sprague-Dawley rat at 5 mg/kg", "assay_type": "ADME, organism-based", "settings": "in vivo"}, "[19]": {"experiment": "Terminal half life in Sprague-Dawley rat at 5 mg/kg, iv", "assay_type": "ADME, organism-based", "settings": "in vivo, read-out: beta t1/2 (converted)"}, "[20]": {"experiment": "Systemic plasma clearance in Sprague-Dawley rat at 5 mg/kg, iv", "assay_type": "ADME, organism-based"}, "[21]": {"experiment": "Volume of distribution at steady state in Sprague-Dawley rat at 5 mg/kg, iv", "assay_type": "ADME, organism-based", "settings": "in vivo, read-out: Vdss"}, "[22]": {"target": "T1, Non-receptor tyrosine-protein kinase TYK2", "experiment": "Inhibition of Tyk2 (unknown origin) at 3 uM"}, "[23]": {"target": "T1, Non-receptor tyrosine-protein kinase TYK2", "experiment": "Inhibition of Tyk2 (unknown origin) at 30 uM"}, "[24]": {"target": "T1, Non-receptor tyrosine-protein kinase TYK2", "experiment": "Inhibition of Tyk2 (unknown origin) at 100 uM"}},
  "data": [
    {"smiles": "CC(C)c1nn(C)cc1-c1nc2c(N3CCN(Cc4cccnc4)CC3)c(Br)cnc2[nH]1", "values": [
      {"measurement": "IC50", "setting": "[1]", "result": 10, "unit": "nM"},
      {"measurement": "AUC(0-inf)", "setting": "[2]", "result": 90, "unit": "ng·h/mL"},
      {"measurement": "MRT", "setting": "[3]", "result": 102, "unit": "min"},
      {"measurement": "inhibition", "setting": "[4]", "result": "< 50", "unit": "%"},
      {"measurement": "AUC(0-t)", "setting": "[5]", "result": 1420, "unit": "ng·h/mL"},
      {"measurement": "Cmax", "setting": "[6]", "result": 1340, "unit": "ng/mL"},
      {"measurement": "AUC(0-t)", "setting": "[7]", "result": 80, "unit": "ng·h/mL"},
      {"measurement": "inhibition", "setting": "[8]", "result": "> 90", "unit": "%"},
      {"measurement": "inhibition", "setting": "[9]", "result": "> 90", "unit": "%"},
      {"measurement": "Cmax", "setting": "[10]", "result": 70, "unit": "ng/mL"},
      {"measurement": "Tmax", "setting": "[11]", "result": 4.8, "unit": "min"},
      {"measurement": "inhibition", "setting": "[12]", "result": 99, "unit": "%"},
      {"measurement": "inhibition", "setting": "[13]", "result": "> 90", "unit": "%"},
      {"measurement": "Tmax", "setting": "[14]", "result": 19.8, "unit": "min"},
      {"measurement": "half-life", "setting": "[15]", "result": 105, "unit": "min"},
      {"measurement": "MRT", "setting": "[16]", "result": 47.4, "unit": "min"},
      {"measurement": "AUC(0-inf)", "setting": "[17]", "result": 1430, "unit": "ng·h/mL"},
      {"measurement": "bioavailability", "setting": "[18]", "result": 6.07, "unit": "%"},
      {"measurement": "half-life", "setting": "[19]", "result": 49.8, "unit": "min"},
      {"measurement": "clearance", "setting": "[20]", "result": 59, "unit": "mL/min/kg"},
      {"measurement": "Vd", "setting": "[21]", "result": 2.76, "unit": "L/kg"}
    ]},
    {"smiles": "CC(C)c1nn(C)cc1-c1nc2cc(Br)cnc2[nH]1", "values": [
      {"measurement": "inhibition", "setting": "[22]", "result": 60, "unit": "%"},
      {"measurement": "inhibition", "setting": "[23]", "result": 92, "unit": "%"},
      {"measurement": "inhibition", "setting": "[12]", "result": 83, "unit": "%"},
      {"measurement": "inhibition", "setting": "[24]", "result": 97, "unit": "%"}
    ]},
    {"smiles": "CC(C)c1n[nH]cc1-c1nc2cc(Br)cnc2[nH]1", "values": [
      {"measurement": "inhibition", "setting": "[12]", "result": "< 30", "unit": "%"}
    ]},
    {"smiles": "CC(C)c1nn(-c2ccccc2)cc1-c1nc2cc(Br)cnc2[nH]1", "values": [
      {"measurement": "inhibition", "setting": "[12]", "result": 38, "unit": "%"}
    ]}
  ]
}
